Values after ≈ are worked out from the molar mass of the structure shown.
Tests used:
[1] = molecular target: Transient receptor potential cation channel subfamily A member 1 (Homo sapiens, UniProt O75762); assay: Antagonist activity at human TRPA1 expressed in HEK293-TREx cells assessed as intracellular level after 48 of 72 hrs by Fluo-4 NW staining-based fluorescence analysis; type: cell-based
[2] = molecular target: Transient receptor potential cation channel subfamily A member 1 (Rattus norvegicus, UniProt Q6RI86); assay: Antagonist activity at rat TRPA1 expressed in HEK293-TREx cells assessed as intracellular level after 48 of 72 hrs by Fluo-4 NW staining-based fluorescence analysis; type: cell-based
Cytochrome P450 2C19 = Cytochrome P450 2C19 (Homo sapiens, UniProt P33261); assay: Inhibition of CYP2C19 in human liver microsomes by LC-MS/MS/competitive screening assay; type: ADME
[3] = Apparent permeability across apical to basolateral side in human Caco2 cells at 10 uM at pH 7.4 by Transwell assay; type: ADME, cell-based; settings: Caco-2, pH 7.4
Cytochrome P450 2C9 = Cytochrome P450 2C9 (Homo sapiens, UniProt P11712); assay: Inhibition of CYP2C9 in human liver microsomes by LC-MS/MS/competitive screening assay; type: ADME
Cytochrome P450 2D6 = Cytochrome P450 2D6 (Homo sapiens, UniProt P10635); assay: Inhibition of CYP2D6 in human liver microsomes by LC-MS/MS/competitive screening assay; type: ADME
Cytochrome P450 3A4 = Cytochrome P450 3A4 (Homo sapiens, UniProt P08684); assay: Inhibition of CYP3A4 in human liver microsomes by LC-MS/MS/competitive screening assay; type: ADME
[4] = Intrinsic clearance in human liver microsomes at 1 uM in presence of NADPH; type: ADME; settings: read-out: CLH
[5] = Thermodynamic solubility of the compound in buffer at pH 7.4 by HPLC/UV detection; type: physicochemical; settings: read-out: Therm_solubility
Cytochrome P450 1A2 [6] = molecular target: T1, Cytochrome P450 1A2 (Homo sapiens, UniProt P05177); assay: Time dependent inhibition of CYP1A2 in human liver microsomes assessed as shift at 10 uM; type: ADME; settings: pooled result: one value given for 4 cell lines, strains, targets or settings
T1 sequence (P05177 whole entry): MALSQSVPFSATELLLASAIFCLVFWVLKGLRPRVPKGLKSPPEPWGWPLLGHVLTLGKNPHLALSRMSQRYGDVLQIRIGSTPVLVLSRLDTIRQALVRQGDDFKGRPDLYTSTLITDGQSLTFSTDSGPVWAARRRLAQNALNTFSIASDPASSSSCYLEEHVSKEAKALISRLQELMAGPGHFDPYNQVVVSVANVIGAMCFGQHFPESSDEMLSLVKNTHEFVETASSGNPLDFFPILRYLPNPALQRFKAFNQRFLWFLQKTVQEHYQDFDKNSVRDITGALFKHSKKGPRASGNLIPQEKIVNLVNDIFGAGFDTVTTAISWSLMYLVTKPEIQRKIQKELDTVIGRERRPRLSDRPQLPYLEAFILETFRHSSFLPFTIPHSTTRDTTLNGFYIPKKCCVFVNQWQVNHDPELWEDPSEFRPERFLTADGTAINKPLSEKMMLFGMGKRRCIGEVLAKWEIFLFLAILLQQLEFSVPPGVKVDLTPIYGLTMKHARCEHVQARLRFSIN

Cytochrome P450 1A2 [7] = molecular target: T1, Cytochrome P450 1A2; assay: Inhibition of CYP1A2 in human liver microsomes by LC-MS/MS/competitive screening assay; type: ADME
[8] = Chemical stability in buffer solution assessed as compound remaining at pH 7 at 70 degC after 24 hrs by HPLC/UV detection; type: physicochemical; settings: read-out: Stability
[9] = Chemical stability in buffer solution assessed as compound remaining at pH 14 at 70 degC after 24 hrs by HPLC/UV detection; type: physicochemical; settings: read-out: Stability
[10] = Chemical stability in buffer solution assessed as compound remaining at pH 1 at 70 degC after 24 hrs by HPLC/UV detection; type: physicochemical; settings: read-out: Stability
[11] = molecular target: Transient receptor potential cation channel subfamily V member 1 (Homo sapiens, UniProt Q8NER1); assay: Inhibition of human TRPV1
Transient receptor potential cation channel subfamily V member 1, sequence (Q8NER1 whole entry): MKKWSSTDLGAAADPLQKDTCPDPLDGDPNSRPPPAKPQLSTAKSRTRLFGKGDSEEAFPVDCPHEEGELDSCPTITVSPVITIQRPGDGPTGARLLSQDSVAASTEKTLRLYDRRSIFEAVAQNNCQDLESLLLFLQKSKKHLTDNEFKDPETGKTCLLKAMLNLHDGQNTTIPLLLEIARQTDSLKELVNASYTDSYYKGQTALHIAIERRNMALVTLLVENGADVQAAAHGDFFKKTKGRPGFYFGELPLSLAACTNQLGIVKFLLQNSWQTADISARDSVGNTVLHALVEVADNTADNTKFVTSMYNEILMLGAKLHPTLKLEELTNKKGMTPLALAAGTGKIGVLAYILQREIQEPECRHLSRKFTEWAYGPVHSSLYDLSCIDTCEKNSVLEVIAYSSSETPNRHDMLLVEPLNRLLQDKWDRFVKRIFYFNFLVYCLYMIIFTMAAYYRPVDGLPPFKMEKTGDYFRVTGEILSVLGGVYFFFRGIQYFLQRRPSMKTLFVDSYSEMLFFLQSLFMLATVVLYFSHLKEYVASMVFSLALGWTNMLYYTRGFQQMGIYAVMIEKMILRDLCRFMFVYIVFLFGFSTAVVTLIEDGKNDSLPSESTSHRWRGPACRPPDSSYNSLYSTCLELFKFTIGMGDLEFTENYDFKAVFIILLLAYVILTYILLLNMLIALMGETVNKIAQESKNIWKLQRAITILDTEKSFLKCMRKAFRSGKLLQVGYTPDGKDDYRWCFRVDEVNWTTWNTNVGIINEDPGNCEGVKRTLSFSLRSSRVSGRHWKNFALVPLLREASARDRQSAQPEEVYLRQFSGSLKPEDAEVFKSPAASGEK

Transient receptor potential cation channel subfamily A member 1 (Homo sapiens, UniProt O75762), sequence (O75762 whole entry): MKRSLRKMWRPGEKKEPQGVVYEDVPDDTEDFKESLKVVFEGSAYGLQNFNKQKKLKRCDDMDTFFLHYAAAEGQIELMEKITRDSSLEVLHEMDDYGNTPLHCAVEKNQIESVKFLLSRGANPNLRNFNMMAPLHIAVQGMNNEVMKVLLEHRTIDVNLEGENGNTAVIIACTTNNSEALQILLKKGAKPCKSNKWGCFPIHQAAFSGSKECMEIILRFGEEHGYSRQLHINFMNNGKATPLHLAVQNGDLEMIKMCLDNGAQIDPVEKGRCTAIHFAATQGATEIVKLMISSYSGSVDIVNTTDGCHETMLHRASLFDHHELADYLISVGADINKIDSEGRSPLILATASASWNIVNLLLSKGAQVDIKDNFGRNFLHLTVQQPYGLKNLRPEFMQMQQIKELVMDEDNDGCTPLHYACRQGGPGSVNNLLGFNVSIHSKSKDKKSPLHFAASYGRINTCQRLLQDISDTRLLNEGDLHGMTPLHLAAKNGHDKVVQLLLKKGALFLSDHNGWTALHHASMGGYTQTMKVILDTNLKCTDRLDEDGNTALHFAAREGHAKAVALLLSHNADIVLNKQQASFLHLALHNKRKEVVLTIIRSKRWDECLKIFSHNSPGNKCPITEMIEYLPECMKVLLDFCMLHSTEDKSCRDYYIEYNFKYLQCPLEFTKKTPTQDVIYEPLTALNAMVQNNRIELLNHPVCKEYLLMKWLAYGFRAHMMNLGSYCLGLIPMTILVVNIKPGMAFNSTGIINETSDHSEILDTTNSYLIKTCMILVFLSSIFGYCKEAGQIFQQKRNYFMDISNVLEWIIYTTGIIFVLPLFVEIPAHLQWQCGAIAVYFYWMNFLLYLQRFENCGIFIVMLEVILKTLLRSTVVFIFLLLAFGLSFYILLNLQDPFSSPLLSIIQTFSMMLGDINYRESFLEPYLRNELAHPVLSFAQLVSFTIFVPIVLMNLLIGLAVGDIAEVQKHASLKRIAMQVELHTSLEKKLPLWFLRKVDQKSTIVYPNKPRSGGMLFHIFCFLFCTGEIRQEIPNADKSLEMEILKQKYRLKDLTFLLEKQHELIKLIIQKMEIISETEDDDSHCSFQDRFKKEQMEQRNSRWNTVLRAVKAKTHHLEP
Cytochrome P450 2D6, sequence (P10635 whole entry): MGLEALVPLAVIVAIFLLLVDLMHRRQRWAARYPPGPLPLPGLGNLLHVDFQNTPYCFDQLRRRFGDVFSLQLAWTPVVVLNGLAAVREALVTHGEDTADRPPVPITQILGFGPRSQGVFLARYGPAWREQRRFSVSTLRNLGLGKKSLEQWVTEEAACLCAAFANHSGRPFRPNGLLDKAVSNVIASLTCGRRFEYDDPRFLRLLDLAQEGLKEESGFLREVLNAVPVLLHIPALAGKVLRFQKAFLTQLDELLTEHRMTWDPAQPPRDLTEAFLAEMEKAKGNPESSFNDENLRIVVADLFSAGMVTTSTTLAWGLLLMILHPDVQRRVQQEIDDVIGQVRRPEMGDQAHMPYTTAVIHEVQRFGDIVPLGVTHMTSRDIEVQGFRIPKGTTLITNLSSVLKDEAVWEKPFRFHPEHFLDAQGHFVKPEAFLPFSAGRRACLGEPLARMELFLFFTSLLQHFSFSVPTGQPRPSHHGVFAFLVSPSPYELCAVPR
Cytochrome P450 3A4, sequence (P08684 whole entry): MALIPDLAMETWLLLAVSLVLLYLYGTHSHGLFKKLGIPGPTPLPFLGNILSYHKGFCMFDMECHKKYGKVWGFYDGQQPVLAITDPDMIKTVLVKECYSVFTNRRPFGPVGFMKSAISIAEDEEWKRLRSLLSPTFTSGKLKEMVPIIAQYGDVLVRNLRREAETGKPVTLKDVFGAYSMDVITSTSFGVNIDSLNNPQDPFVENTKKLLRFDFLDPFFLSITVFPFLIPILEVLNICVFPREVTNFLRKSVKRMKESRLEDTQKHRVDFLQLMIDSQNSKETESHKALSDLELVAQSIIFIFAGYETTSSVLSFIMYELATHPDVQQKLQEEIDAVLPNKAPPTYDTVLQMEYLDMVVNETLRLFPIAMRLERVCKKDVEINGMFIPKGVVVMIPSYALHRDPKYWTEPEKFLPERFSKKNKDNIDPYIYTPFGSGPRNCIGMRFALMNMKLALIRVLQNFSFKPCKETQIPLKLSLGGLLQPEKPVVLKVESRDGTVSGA
Transient receptor potential cation channel subfamily A member 1 (Rattus norvegicus, UniProt Q6RI86), sequence (Q6RI86 whole entry): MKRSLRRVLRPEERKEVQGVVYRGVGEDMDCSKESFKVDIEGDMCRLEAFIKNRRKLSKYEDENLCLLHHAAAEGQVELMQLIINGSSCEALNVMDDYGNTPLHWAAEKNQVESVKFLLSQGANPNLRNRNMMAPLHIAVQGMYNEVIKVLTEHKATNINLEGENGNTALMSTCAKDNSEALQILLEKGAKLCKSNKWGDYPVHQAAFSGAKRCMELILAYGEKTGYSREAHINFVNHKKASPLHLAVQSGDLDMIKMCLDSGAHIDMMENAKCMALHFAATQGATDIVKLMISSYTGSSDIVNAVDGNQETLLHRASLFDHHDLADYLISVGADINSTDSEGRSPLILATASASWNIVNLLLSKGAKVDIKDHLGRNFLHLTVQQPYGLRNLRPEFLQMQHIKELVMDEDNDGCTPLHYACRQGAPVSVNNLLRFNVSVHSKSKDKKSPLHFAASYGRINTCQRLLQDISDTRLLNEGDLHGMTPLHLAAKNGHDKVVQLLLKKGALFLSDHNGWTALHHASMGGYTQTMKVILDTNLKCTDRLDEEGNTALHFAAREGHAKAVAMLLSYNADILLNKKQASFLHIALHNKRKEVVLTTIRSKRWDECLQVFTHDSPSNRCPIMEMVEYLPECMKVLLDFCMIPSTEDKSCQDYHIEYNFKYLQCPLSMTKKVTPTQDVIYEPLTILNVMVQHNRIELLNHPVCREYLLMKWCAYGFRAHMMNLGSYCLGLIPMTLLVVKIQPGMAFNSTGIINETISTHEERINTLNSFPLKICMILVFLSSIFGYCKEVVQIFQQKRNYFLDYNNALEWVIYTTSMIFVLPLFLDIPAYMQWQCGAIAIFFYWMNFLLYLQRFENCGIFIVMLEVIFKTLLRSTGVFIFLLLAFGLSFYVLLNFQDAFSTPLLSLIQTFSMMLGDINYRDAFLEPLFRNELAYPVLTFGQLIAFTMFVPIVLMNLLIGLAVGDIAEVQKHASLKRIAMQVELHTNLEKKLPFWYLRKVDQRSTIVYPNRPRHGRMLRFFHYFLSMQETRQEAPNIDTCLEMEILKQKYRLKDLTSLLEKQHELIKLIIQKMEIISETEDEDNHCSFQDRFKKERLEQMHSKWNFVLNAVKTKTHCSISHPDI
Cytochrome P450 2C9, sequence (P11712 whole entry): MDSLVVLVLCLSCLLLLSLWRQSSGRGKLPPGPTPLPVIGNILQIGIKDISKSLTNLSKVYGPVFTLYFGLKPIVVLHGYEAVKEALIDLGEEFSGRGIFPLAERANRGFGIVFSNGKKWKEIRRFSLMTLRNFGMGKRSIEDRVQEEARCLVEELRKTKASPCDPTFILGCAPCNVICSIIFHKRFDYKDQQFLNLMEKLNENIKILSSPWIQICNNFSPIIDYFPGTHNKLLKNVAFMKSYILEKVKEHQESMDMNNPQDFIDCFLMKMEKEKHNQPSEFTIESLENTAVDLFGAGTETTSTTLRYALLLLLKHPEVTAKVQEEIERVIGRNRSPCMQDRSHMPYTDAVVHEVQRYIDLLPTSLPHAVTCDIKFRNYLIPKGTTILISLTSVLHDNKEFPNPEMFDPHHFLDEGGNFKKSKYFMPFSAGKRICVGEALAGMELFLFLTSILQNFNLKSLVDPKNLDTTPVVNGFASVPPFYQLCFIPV
Cytochrome P450 2C19, sequence (P33261 whole entry): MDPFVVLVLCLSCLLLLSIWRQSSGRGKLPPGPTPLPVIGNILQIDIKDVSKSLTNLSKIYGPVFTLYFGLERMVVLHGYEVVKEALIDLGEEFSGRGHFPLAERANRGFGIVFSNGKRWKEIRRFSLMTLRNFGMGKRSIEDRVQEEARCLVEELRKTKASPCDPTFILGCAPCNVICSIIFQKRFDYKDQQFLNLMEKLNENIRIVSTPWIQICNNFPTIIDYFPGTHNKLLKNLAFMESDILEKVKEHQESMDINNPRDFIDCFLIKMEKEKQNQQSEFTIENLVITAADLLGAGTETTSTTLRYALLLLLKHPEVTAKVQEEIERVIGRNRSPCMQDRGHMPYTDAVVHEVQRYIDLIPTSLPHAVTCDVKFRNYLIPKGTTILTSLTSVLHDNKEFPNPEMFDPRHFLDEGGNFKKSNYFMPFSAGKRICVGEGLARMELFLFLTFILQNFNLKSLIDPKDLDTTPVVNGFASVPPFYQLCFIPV

Fc1ccc(Oc2ccnc3[nH]ccc23)c(F)c1
IC50 [1]: > 32000 nM

Fc1ccc(Oc2nccc3occc23)c(F)c1
IC50 [1]: 2200 nM

Fc1ccc(Oc2nccc3[nH]ccc23)cc1
IC50 [2]: 1200 nM
IC50 (Cytochrome P450 2C19): > 20 µM
Papp A→B at 10 µM [3]: 12 ×10⁻⁶ cm/s
IC50 (Cytochrome P450 2C9): > 20 µM
IC50 (Cytochrome P450 2D6): > 20 µM
IC50 (Cytochrome P450 3A4): > 20 µM
IC50 [1]: 310 nM
microsomal CLint at 1 µM [4]: 74 µL/min/mg
solubility thermodynamic [5]: 24 µM (≈ 5.48 µg/mL)
TDI (Cytochrome P450 1A2 [6]): 31%
IC50 (Cytochrome P450 1A2 [7]): > 20 µM

COc1cc2ncnc(Oc3ccc(F)cc3F)c2cc1OC
IC50 [1]: 1200 nM

COc1ccc2c(Oc3ccc(F)cc3F)ncnc2c1
IC50 [1]: 3000 nM

COc1ccc2ncnc(Oc3ccc(F)cc3F)c2c1
IC50 [1]: > 32000 nM

Fc1ccc(Oc2ncnc3ccccc23)c(F)c1
IC50 [1]: > 32000 nM

COc1cc2ccnc(Oc3ccc(F)cc3F)c2cc1OC
IC50 [1]: 630 nM

COc1ccc2c(Oc3ccc(F)cc3F)nccc2c1
IC50 [1]: 1300 nM

Fc1ccc(Oc2nccc3ccccc23)c(F)c1
IC50 [1]: 3100 nM

COc1cc2ccnc(Oc3ccc(F)cc3)c2cc1OC
IC50 [2]: 1800 nM
IC50 (Cytochrome P450 2C19): 1.9 µM
Papp A→B at 10 µM [3]: 6 ×10⁻⁶ cm/s
IC50 (Cytochrome P450 2C9): 1.9 µM
IC50 (Cytochrome P450 2D6): 1.9 µM
IC50 (Cytochrome P450 3A4): 1.9 µM
IC50 [1]: 330 nM
microsomal CLint at 1 µM [4]: 110 µL/min/mg
solubility thermodynamic [5]: 8 µM (≈ 2.39 µg/mL)
IC50 (Cytochrome P450 1A2 [7]): 1.9 µM

Fc1cc(F)c(Oc2ncnc3[nH]ccc23)c(F)c1
IC50 [1]: > 32000 nM

Fc1ccc(Oc2ncnc3[nH]ccc23)c(F)c1
IC50 [1]: 710 nM

Fc1ccc(Oc2ncnc3[nH]ccc23)cc1
IC50 [2]: 3000 nM
IC50 (Cytochrome P450 2C19): > 20 µM
remaining at 24 h [8]: 100%
Papp A→B at 10 µM [3]: 18 ×10⁻⁶ cm/s
IC50 (Cytochrome P450 2C9): > 20 µM
remaining at 24 h [9]: 100%
IC50 (Cytochrome P450 2D6): > 20 µM
IC50 (Cytochrome P450 3A4): > 20 µM
remaining at 24 h [10]: 10%
IC50 [1]: 410 nM
microsomal CLint at 1 µM [4]: 24 µL/min/mg
solubility thermodynamic [5]: 33 µM (≈ 7.56 µg/mL)
TDI (Cytochrome P450 1A2 [6]): 44%
IC50 (Cytochrome P450 1A2 [7]): > 20 µM
IC50 [11]: > 10 µM

c1ccc(Oc2ncnc3[nH]ccc23)cc1
IC50 [1]: 3200 nM

Cc1ccc(Oc2ncnc3[nH]ccc23)cc1
IC50 [1]: > 32000 nM

Cc1ccccc1Oc1ncnc2[nH]ccc12
IC50 [1]: > 32000 nM

Cc1ccc(Oc2ncnc3[nH]ccc23)c(C)c1
IC50 [1]: > 32000 nM

Clc1ccc(Oc2ncnc3[nH]ccc23)cc1
IC50 [1]: > 32000 nM

N#Cc1ccc(Oc2ncnc3[nH]ccc23)cc1
IC50 [1]: > 32000 nM

O=[N+]([O-])c1ccc(Oc2ncnc3[nH]ccc23)cc1
IC50 [1]: > 32000 nM

COc1ccc(Oc2ncnc3[nH]ccc23)cc1
IC50 [1]: > 32000 nM

Fc1cccc(Oc2ncnc3[nH]ccc23)c1F
IC50 [1]: 2700 nM

Fc1ccc(Oc2ncnc3[nH]ccc23)cc1F
IC50 [1]: 3000 nM

Fc1ccccc1Oc1ncnc2[nH]ccc12
IC50 [1]: > 32000 nM

Fc1cccc(Oc2ncnc3[nH]ccc23)c1
IC50 [1]: > 32000 nM

Fc1ccc(Nc2ncnc3[nH]ccc23)cc1
IC50 [1]: > 32000 nM

Fc1ccc(Cc2ncnc3[nH]ccc23)cc1
IC50 [1]: > 32000 nM

Cc1cc2c(Oc3ccc(F)cc3F)ncnc2[nH]1
IC50 [1]: 1200 nM

Cc1[nH]c2ncnc(Oc3ccc(F)cc3F)c2c1C
IC50 [1]: 2000 nM

Cc1c[nH]c2ncnc(Oc3ccc(F)cc3F)c12
IC50 [1]: 650 nM

CCc1c[nH]c2ncnc(Oc3ccc(F)cc3F)c12
IC50 [1]: 1600 nM

Fc1ccc(Oc2ncnc3[nH]cc(Cl)c23)c(F)c1
IC50 [1]: 630 nM

Fc1ccc(Oc2ncnc3[nH]cc(I)c23)c(F)c1
IC50 [1]: 2500 nM

Fc1ccc(Oc2ccncn2)c(F)c1
IC50 [1]: > 32000 nM

Cn1ccc2c(Oc3ccc(F)cc3F)ncnc21
IC50 [1]: > 32000 nM

Fc1ccc(Oc2ncnc3cc[nH]c23)c(F)c1
IC50 [1]: > 32000 nM

Fc1ccc(Oc2ncnc3ccoc23)c(F)c1
IC50 [1]: > 32000 nM

Fc1ccc(Oc2ncnc3occc23)c(F)c1
IC50 [1]: > 32000 nM

Fc1ccc(Oc2cccc3[nH]ccc23)c(F)c1
IC50 [1]: 1100 nM

Fc1ccc(Oc2nccc3[nH]ccc23)c(F)c1
IC50 [2]: 1700 nM
IC50 (Cytochrome P450 2C19): > 20 µM
remaining at 24 h [8]: 100%
Papp A→B at 10 µM [3]: 33 ×10⁻⁶ cm/s
IC50 (Cytochrome P450 2C9): > 20 µM
remaining at 24 h [9]: 100%
IC50 (Cytochrome P450 2D6): > 20 µM
IC50 (Cytochrome P450 3A4): > 20 µM
remaining at 24 h [10]: 100%
IC50 [1]: 320 nM
microsomal CLint at 1 µM [4]: 45 µL/min/mg
solubility thermodynamic [5]: 77 µM (≈ 19 µg/mL)
TDI (Cytochrome P450 1A2 [6]): 42%
IC50 (Cytochrome P450 1A2 [7]): > 20 µM
IC50 [11]: > 10 µM

Fc1ccc(Oc2nccc3ccoc23)c(F)c1
IC50 [1]: 1100 nM
